# Assay results reported in patent US20230097992A1, “BIVALENT EGF FUSION TOXINS” (The Regents of the University of Colorado, a body corporate, priority 2020, published 2023).
# Entries after “also recorded” stand apart in the source; their conditions may differ.
# Columns and labels:
# [1] = test system: HNSCC Cal27 cells injected intravenously (lung metastases); assay: Experimental lung metastasis NSG mouse model; assay type: in vivo, NSG mice; conditions: for Median survival time: Lung metastasis model, fusion toxin or DT390 50 μg/kg IP, erlotinib 20 mg/kg gavage, once daily for 10 days from day 4; for number of metastases in the lungs: second cohort, euthanized 10 days after tumor cell inoculation
# Procedure: FIG. 8A-C presents data from in vivo efficacy analysis of the human EGF fusion toxins using an experimental lung metastasis NSG mouse model. FIG. 8A presents data from a first animal study for survival curve analysis. NSG mice were IV injected with one million human EGFR^+ HNSCC Cal27 cells on day 0. Mice were injected intraperitoneally (IP) with the EGF fusion toxin or DT390 at 50 μg/kg, once daily for 10 consecutive days starting on day 4 after the tumor cell injection. […] The schedule of the fusion toxin and tumor cell injection is pictured in the schematic below the survival curve. The vertical arrows indicate the days on which the tumor cells or the fusion toxins were injected. *P<0.05; **P<0.01; ***P<0.001; ****P<0.0001. The P-values for the survival curves were calculated using the Mantel-Cox log-rank test (GraphPad Prism9.0).
# FIGS. 8B and C present data from a second animal study for a pathology analysis. […] The mice were euthanized on day 10 after tumor cell injection when the first mouse in the DT390 group reached the end point. FIG. 8B presents H&E pictures of lung metastases. Metastases are indicated in the upper panels by black arrowheads. Scale bar: 500 μm. The lower panels are higher magnification pictures of the area in black rectangles in the upper panels. […] Error bars indicate standard deviation (SD).
# (§1) HNSCC tumor cells were injected via the following routes: 1) Flank-xenograft solid tumor model: eight million human HNSCC Cal27 tumor cells were subcutaneously injected into the right flank at day 0. The tumor-bearing mice were randomly divided into the four experimental groups when the tumors were palpable at day 3. The tumor volume was measured using digital vernier calipers every 3 days and calculated according to the formula: volume (mm^3)=(length×width×width)/2. 2) Tongue-orthotopic solid tumor model: eight million human HNSCC Cal27 tumor cells in 50 μl DMEM were injected into the tongue at day 0 following isoflurane anesthesia and the tumor-bearing mice were randomly divided into the planned four experimental groups at day 3. 3) Experimental metastasis model: one million human HNSCC Cal27 tumor cells in 200 μl DMEM were intravenously injected at day 0 via tail vein and the tumor-bearing mice were randomly divided into the four experimental groups at day 3.
# (§2) Mono-EGF-IT (mEGF-IT), bEGF-IT, or DT390 was intraperitoneally injected (IP) starting at day 4 at 50 μg/kg, once daily for 10 consecutive days. […] The injected animals were observed daily for signs and symptoms of illness and scored at least twice weekly based on the parameters as previously reported (Peraino et al. (2013), J. Immunol. Methods 398-399, 33-43, which is hereby incorporated by reference in its entirety; Wang et al., 2015). The animals were humanely euthanized when the score exceeded the limit or the animal lost more than 15% of its pre-injection body weight. In addition, to assess whether the fusion toxins are toxic to the animals, NSG mice injected with the fusion toxins only were also included as control.
# The third in vivo efficacy model was an experimental metastasis model. One million of HNSCC Cal27 tumor cells were intravenously injected via the tail vein of NSG mice at day 0. The EGF fusion toxins were injected intraperitoneally (IP) starting on day 4 at 50 μg/kg daily for 10 consecutive days. […] To further assess the effects of the fusion toxins on metastasis, the experimental metastasis study was repeated with a second cohort of NSG mice, and all mice were euthanized 10 days after tumor cell inoculation, when the first mouse in the DT390 group reached the end point. The data are depicted in FIGS. 8B and C.
# [2] = test system: HNSCC Cal27 tongue-orthotopic tumors; assay: Tongue-orthotopic tumor-bearing NSG mouse model; assay type: in vivo, NSG mice; conditions: for Median survival time: Tongue orthotopic model, fusion toxin or DT390 50 μg/kg IP, erlotinib 20 mg/kg gavage, once daily for 10 days from day 4; for tongue SCC tumor volume versus mono-EGF-IT and DT390 groups: second cohort, euthanized 8 days after tumor cell inoculation
# Procedure: FIGS. 7A-7C presents the data from two animal studies of in vivo efficacy analysis of the human EGF fusion toxins against tongue squamous cell carcinomas (SCCs) in NSG mice. FIG. 7A presents the data from in vivo efficacy analysis of the human EGF fusion toxins using human EGFR-positive HNSCC Cal27 tongue-orthotopic tumor-bearing NSG mouse model. Eight million human EGFR-positive HNSCC Cal27 cells were injected into the tongue on day 0. Mice were injected intraperitoneally (IP) with the EGF fusion toxin or DT390 at 50 μg/kg, starting on day 4, once daily for 10 consecutive days. […] The schedule of the fusion toxin and tumor cell injection is pictured in the schematic below the survival curve. The vertical arrows indicate the days on which the tumor cells or the fusion toxins were injected. *P<0.05; **P<0.01; ***P<0.001; ****P<0.0001; ns: not significant.
# FIG. 7B presents the data from a further in vivo efficacy analysis of the human EGF fusion toxins. […] The mice were euthanized on day 8 after tumor cell injection when the first mouse in the DT390 group reached the end point. The photograph depicts tongue squamous cell carcinomas (SCCs) (circled by the black dotted lines). Scale bar: 1 cm. FIG. 7C presents the FIG. 7B tumor volume comparison of the treatment groups. *P<0.05; **P<0.01
# as §1, §2
# To assess the in vivo efficacy of the human EGF fusion toxins to the xenograft tumors in the head and neck area, a tongue-orthotopic tumor-bearing NSG mouse model was used as a second efficacy model. Eight million HNSCC Cal27 cells were injected into the tongue at day 0. The EGF fusion toxins were injected intraperitoneally (IP) starting on day 4 at 50 μg/kg daily for 10 consecutive days. Since the resulting tongue-orthotopic tumors severely affected the animal's eating and drinking, animals were euthanized earlier. Therefore, the median survival prolongation was not as impressive as that observed in the flank-xenograft solid tumor-bearing NSG mouse model. […] To further characterize the effect of the EGF fusion toxins on tumor volume, the orthotopic tongue SCC model study was repeated, and the mice were euthanized 8 days after tumor cell inoculation.
Compound,Median survival time [1],number of metastases in the lungs [1],Median survival time [2],tongue SCC tumor volume versus mono-EGF-IT and DT390 groups [2]
C#Cc1cccc(Nc2ncnc3cc(OCCOC)c(OCCOC)cc23)c1 [Erlotinib],30 days,reduced compared with the DT390-negative control group,16.5 days,significantly smaller
"Bi-EGF IT: DT390 joined by G4S to two human EGF domains linked by (G4S)3, C-terminal 6×His tag; SEQ ID NO: 10",38 days,reduced compared with the DT390-negative control group; also recorded: reduction was greater in the bi-EGF-IT group than in the mono-EGF-IT group,15 days,significantly smaller
